Measurements reported in ChEMBL document CHEMBL5543162, “Discovery of a Novel Orally Bioavailable FLT3-PROTAC Degrader for Efficient Treatment of Acute Myeloid Leukemia and Overcoming Resistance of FLT3 Inhibitors” (J Med Chem, 2024).

Legend:
[1] = system: Protein cereblon/Receptor-type tyrosine-protein kinase FLT3 (Homo sapiens), P36888+Q96SW2 [UNDEFINED MUTATION]; experiment: PROTAC activity at CRBN/FLT3-ITD mutant in human MV4-11 cells assessed as decrease in S6K level at 20 nM by Western blot analysis; type: cell-based; settings: time <= 12.0 hrs, TDE = time-dependent effect
[2] = system: Protein cereblon/Receptor-type tyrosine-protein kinase FLT3 (Homo sapiens), P36888+Q96SW2 [UNDEFINED MUTATION]; experiment: PROTAC activity at CRBN/FLT3-ITD mutant in human MOLM-13 cells assessed as decrease in STAT5 level incubated for 12 hrs by Western blot analysis; type: cell-based; settings: dose <= 20.0 nM
[3] = Volume of distribution at steady state in Sprague-Dawley rat at 1 mg/kg, iv measured for 24 hrs by LC-MS/MS analysis; type: ADME, organism-based; settings: in vivo, read-out: Vdss
[4] = Half life in Sprague-Dawley rat at 1 mg/kg, iv measured for 24 hrs by LC-MS/MS analysis; type: ADME, organism-based; settings: in vivo

Chain of Protein cereblon/Receptor-type tyrosine-protein kinase FLT3 (Homo sapiens), P36888+Q96SW2 [UNDEFINED MUTATION] (P36888 whole entry, looked up, stated change not applied): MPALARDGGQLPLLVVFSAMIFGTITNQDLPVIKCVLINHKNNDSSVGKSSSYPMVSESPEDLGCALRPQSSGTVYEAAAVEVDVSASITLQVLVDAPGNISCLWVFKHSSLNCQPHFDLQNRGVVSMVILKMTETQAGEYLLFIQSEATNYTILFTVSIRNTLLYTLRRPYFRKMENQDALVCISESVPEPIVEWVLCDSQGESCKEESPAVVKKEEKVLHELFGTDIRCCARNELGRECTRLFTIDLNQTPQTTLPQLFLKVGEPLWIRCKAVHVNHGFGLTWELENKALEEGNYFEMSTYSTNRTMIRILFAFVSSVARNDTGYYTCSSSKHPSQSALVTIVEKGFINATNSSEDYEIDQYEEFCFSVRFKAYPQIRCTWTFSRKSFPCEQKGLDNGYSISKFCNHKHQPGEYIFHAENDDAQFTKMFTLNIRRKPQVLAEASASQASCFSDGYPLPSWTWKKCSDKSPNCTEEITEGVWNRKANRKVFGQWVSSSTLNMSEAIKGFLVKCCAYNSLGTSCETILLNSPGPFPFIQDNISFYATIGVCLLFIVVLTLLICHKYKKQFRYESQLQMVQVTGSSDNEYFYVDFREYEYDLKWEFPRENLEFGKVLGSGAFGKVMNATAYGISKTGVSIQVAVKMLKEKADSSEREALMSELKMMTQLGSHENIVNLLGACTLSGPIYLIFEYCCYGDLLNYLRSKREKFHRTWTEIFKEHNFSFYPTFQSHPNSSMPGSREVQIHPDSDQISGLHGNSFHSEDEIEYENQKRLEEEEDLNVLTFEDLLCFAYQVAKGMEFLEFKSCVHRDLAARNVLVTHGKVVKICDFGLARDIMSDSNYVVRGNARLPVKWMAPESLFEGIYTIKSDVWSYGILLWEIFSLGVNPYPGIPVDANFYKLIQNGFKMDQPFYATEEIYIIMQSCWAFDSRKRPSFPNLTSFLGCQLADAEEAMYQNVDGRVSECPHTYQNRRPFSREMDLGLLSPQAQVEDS
Chain of Protein cereblon/Receptor-type tyrosine-protein kinase FLT3 (Homo sapiens), P36888+Q96SW2 [UNDEFINED MUTATION] (Q96SW2 whole entry, looked up, stated change not applied): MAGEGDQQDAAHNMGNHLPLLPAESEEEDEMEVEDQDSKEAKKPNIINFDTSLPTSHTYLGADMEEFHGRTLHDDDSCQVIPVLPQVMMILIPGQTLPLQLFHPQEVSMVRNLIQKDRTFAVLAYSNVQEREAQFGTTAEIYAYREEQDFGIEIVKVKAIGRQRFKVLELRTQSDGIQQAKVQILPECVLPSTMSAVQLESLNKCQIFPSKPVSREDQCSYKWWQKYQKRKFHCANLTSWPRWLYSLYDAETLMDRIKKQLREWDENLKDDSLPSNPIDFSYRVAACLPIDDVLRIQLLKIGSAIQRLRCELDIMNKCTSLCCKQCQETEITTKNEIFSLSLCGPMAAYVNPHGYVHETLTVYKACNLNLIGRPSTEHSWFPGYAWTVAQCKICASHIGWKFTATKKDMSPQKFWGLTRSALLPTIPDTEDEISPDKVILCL

SMILES: Cc1c(NC(=O)CN2CCN(CC3CCN(c4ccc5c(c4)C(=O)N(C4CCC(=O)NC4=O)C5=O)CC3)CC2)c[nH]c1/C=C1\C(=O)Nc2ccc(F)cc21 (centres undefined)
- Activity [1]: Tde
- Activity [2]: Dose-Dependent Effect
- Vd [3]: 3.5 L/kg
- half-life [4]: 6.5 h
